Laboratory results: patent US8071810B2, “C5a receptor antagonists” (Jerini AG, priority 2005, dated 2011)
Read-outs that look alike come from different tables or passages of the source.

Target: T1, human C5a receptor (CD88) (Homo sapiens, UniProt P21730)
T1 construct: expressed in transfected cells; host or cells: rat basophilic leukemia (RBL) cells, stably transfected
T1 sequence (P21730 1-350): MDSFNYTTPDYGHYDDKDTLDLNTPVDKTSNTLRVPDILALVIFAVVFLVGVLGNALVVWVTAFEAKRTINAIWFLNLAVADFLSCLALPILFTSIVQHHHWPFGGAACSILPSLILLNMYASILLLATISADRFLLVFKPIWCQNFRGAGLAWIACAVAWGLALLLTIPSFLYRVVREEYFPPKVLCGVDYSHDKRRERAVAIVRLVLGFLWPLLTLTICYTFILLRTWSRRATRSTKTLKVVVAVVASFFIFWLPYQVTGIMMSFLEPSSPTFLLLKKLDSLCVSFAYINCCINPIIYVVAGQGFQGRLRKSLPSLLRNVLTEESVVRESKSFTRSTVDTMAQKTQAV
Experiment: C5a induced enzyme (glucosaminidase) release assay in RBL cells expressing the human C5a receptor (Example 28)
Format: cell-based
Conditions: for IC50: RBL cells with human C5aR
Experimental: Basophile leukemia cells from rats (RBL), which express the human C5a receptor (CD88), are cultivated in DMEM with 10% fetal calf serum, 100 U/ml penicillin, 100 μg/ml streptomycin and 2 mM glutamin (all constituents are from Biochrome, Berlin) at 37° C. and with 10% CO2 until a confluent layer is obtained. All following details refer to a tissue culture flask with 75 cm^2 surface. The used up medium is removed. The cells are washed with 10 ml PBS (Dulbecco's PBS, Biochrome) and then covered with 3 ml cell dissociation solution (CDS, Sigma). The cells are incubated for 1 minute at room temperature. Then the CDS is removed and the cells are incubated for further 10-15 minutes at 37° C. to detach the cells completely from the flask. 20 μl solution of the compound to be testet are used in the assay. […] The dilution series are prepared in ⅓ or ½ steps. […] The cells are counted and centrifuged (200 g, 10 min). The cell pellet is taken up with pre-heated HAG-CM, and the cell density is adjusted to 2×10^6 Zellen/ml. The cells are incubated for 5 minutes at 37° C. 2.7 μl of a cytochalasin B solution (1000 μg/ml in DMSO, Sigma) are added per ml cell suspension. The Zellen are incubated for another 3 min at 37° C. Then, 75 μl of the cell suspension are added to the 20 μl solution containing the compounds to be tested. […] The cells are again incubated for 10 minutes at 37° C. […] After this the plates are put on ice and centrifuged for 3 minutes at 1200×g and 4° C. […] The plate is incubated for 1 hour at 37° C. […] The IC50 value is determined by solving the four parameter equation y=((A−D)/(1+(x/C)^B))+D.

[1] = inhibition of C5a induced enzyme release, read-out: Activity-range (antagonistic activity, IC50 enzyme release)
[2] = read-out: IC50 for the inhibition of C5a induced enzyme release

In the case of `CCc1ccc(N)c(CC)c1NC(=O)N(Cc1ccc(OC)cc1F)c1ccc(C(C)C)cc1` [compound 59, 3-(3-amino-2,6-diethyl-phenyl)-1-(2-fluoro-4-methoxy-benzyl)-1-(4-isopropyl-phenyl)-urea], the IC50 [1] is reported as 200 to 5000 nM.
For `CCc1c(N)cc(Cl)c(CC)c1NC(=O)N(Cc1ccc(C)nc1)c1ccc(CC(F)(F)F)cc1` [compound 126, 3-(3-amino-5-chloro-2,6-diethyl-phenyl)-1-(6-methyl-pyridin-3-ylmethyl)-1-[4-(2,2,2-trifluoro-ethyl)-phenyl]-urea], the IC50 [1] was 60 to 200 nM.
With `CCc1c(N)cc(Cl)c(CC)c1NC(=O)N(Cc1cccnc1)c1ccc(C(C)C)cc1` [compound 74, 3-(3-amino-5-chloro-2,6-diethyl-phenyl)-1-(4-isopropyl-phenyl)-1-pyridin-3-ylmethyl-urea] the IC50 [1] was 200 to 5000 nM.
For `C#Cc1ccc(N(Cc2ccc(OC)cc2)C(=O)Nc2c(CC)c(N)cc(Cl)c2CC)cc1` [compound 85, 3-(3-amino-5-chloro-2,6-diethyl-phenyl)-1-(4-ethynyl-phenyl)-1-(4-methoxy-benzyl)-urea], the IC50 [1] was 200 to 5000 nM.
With `CCc1ccc(N(Cc2cnc(N(C)C)nc2)C(=O)Nc2c(CC)c(N)cc(Cl)c2CC)cc1` [compound 121, 3-(3-amino-5-chloro-2,6-diethyl-phenyl)-1-(2-dimethylamino-pyrimidin-e5-ylmethyl)-1-(4-ethyl-phenyl)-urea] the IC50 [1] was 200 to 5000 nM.
`CCc1c(N)cc(Cl)c(CC)c1NC(=O)N(c1ccc(C(C)C)cc1)[C@@H](C)c1ccc(Cl)cc1` [compound 78, (S)-3-(3-amino-5-chloro-2,6-diethyl-phenyl)-1-[1-(4-chlor-phenyl)-ethyl]-1-(4-isopropyl-phenyl)-urea] was tested, and the IC50 [1] was < 60 nM.
In the case of `CCc1c(N)cc(Cl)c(CC)c1NC(=O)N(c1ccc(C(C)C)cc1)[C@@H](C)c1ccc(OC)cc1` [compound 66, (S)-3-(3-amino-5-chloro-2,6-diethyl-phenyl)-1-(4-isopropyl-phenyl)-1-[1-(4-methoxy-phenyl)-ethyl]-urea], the IC50 [2] is reported as 55 nM and the “Times higher antagonistic activity of S configuration than (R) configuration (56)” value (ratio of enzyme release IC50 values) is reported as 11.
Work on `CCc1c(N)cc(Cl)c(CC)c1NC(=O)N(CC1CCCCC1)c1ccc(C(C)C)cc1` [compound 60, 3-(3-amino-5-chloro-2,6-diethyl-phenyl)-1-cyclohexylmethyl-1-(4-isopropyl-phenyl)-urea] yielded an IC50 [1] of 200 to 5000 nM.
Work on `CCc1ccc(N(C(=O)Nc2c(CC)c(N)cc(Cl)c2CC)C2CCc3cc(Cl)ccc32)cc1` (stereo not shown) [compound 104, 3-(3-amino-5-chloro-2,6-diethyl-phenyl)-1-(5-chloro-indane-1-yl)-1-(4-ethyl-phenyl)-urea] yielded an IC50 [1] of 60 to 200 nM.
`CCc1c(Cl)cc(NCC(=O)OC)c(CC)c1NC(=O)N(Cc1ccc(OC)cc1)c1ccc(C(C)C)cc1` [compound 55, {5-chloro-2,4-diethyl-3-[3-(4-isopropyl-phenyl)-3-(4-methoxy-benzyl)-ureido]-phenylamino} acetic acid methyl-ester] gave an IC50 [1] of 200 to 5000 nM.
`COc1ccc(CN(C(=O)Nc2c(C(C)C)ccc(N)c2C(C)C)c2ccc(C(C)C)cc2)cc1` [compound 25, 3-(3-Amino-2,6-diisopropyl-phenyl)-1-(4-isopropyl-phenyl)-1-(4-methoxy-benzyl)-urea] showed an IC50 [1] of 200 to 5000 nM.
`Cc1ccc(CN(Cc2ccccc2)C(=O)c2ccccc2-n2cccc2)cc1` [Compound 8, N-Benzyl-N-(4-methyl-benzyl)-2-pyrrol-1-yl-benzamide, reference compound] showed an IC50 [2] of 1920 nM and an IC50 [1] of 200 to 5000 nM.
Compound `CCc1c(N)cc(Cl)c(CC)c1NC(=O)N(Cc1ccc(OC)cc1F)c1ccc(C(C)C)cc1` [compound 58, 3-(3-amino-5-chloro-2,6-diethyl-phenyl)-1-(2-fluoro-4-methoxy-benzyl)-1-(4-isopropyl-phenyl)-urea] has an IC50 [1] of 200 to 5000 nM.
For `CCc1ccc(N)c(CC)c1NC(=O)N(Cc1ccc2c(c1)CCO2)c1ccc(C(C)C)cc1` [compound 67, 3-(3-amino-2,6-diethyl-phenyl)-1-(2,3-dihydro-benzofuran-5-ylmethyl)-1-(4-isopropyl-phenyl)-urea], the IC50 [1] was 200 to 5000 nM.
For `CCc1c(N)cc(Cl)c(CC)c1NC(=O)N(c1ccc(SC)cc1)[C@@H](C)c1ccc(Cl)cc1` [compound 83, (S)-3-(3-amino-5-chloro-2,6-diethyl-phenyl)-1-[1-(4-chloro-phenyl)-ethyl]-1-(4-methylsulfanyl-phenyl)-urea], the IC50 [1] was 60 to 200 nM.
`CCc1c(N)cc(Cl)c(CC)c1NC(=O)N(Cc1ccc(Cl)cc1)c1ccc(NC(C)=O)cc1` [compound 140, N-{4-[3-(3-amino-5-chloro-2,6-diethyl-phenyl)-1-(4-chloro-benzyl)-ureido]-phenyl}-acetamide] gave an IC50 [1] of 200 to 5000 nM.
Work on `CCc1c(N)cc(Cl)c(CC)c1NC(=O)N(Cc1ccc(Cl)cc1)c1ccc(NC)c2ccccc12` [compound 139, 3-(3-amino-5-chloro-2,6-diethyl-phenyl)-1-(4-chloro-benzyl)-1-(4-methylamino-naphthalin-1-yl)-urea] yielded an IC50 [1] of 200 to 5000 nM.
In the case of `CCc1ccc(N(C(=O)Nc2c(CC)c(N)cc(Cl)c2CC)C(C[N+](=O)[O-])c2ccccc2)cc1` (stereo not shown) [compound 112, 3-(3-amino-5-chloro-2,6-diethyl-phenyl)-1-(4-ethyl-phenyl)-1-(2-nitro-1-phenyl-ethyl)-urea], the IC50 [1] is reported as 200 to 5000 nM.
`CCc1c(Cl)cc(N=O)c(CC)c1NC(=O)N(c1ccc(NC)cc1)[C@@H](C)c1ccc(Cl)cc1` [compound 133, (S)-3-(3-chloro-2,6-diethyl-5-nitroso-phenyl)-1-[1-(4-chloro-phenyl)-ethyl]-1-(4-methylamino-phenyl)-urea] was tested, and the IC50 [1] was < 60 nM.
`CCc1ccc(N(C(=O)Nc2c(CC)c(N)cc(Cl)c2CC)C(C)c2ccc(C)nc2)cc1` (stereo not shown) [compound 123, 3-(3-amino-5-chloro-2,6-diethyl-phenyl)-1-(4-ethyl-phenyl)-1-[1-(6-methyl-pyridin-3-yl)-ethyl]-urea] showed an IC50 [1] of 60 to 200 nM.
Work on `CCc1c(N)cc(Cl)c(CC)c1NC(=O)N(Cc1ccc(Cl)cc1)c1ccc(OC)c2ccccc12` [compound 115, 3-(3-amino-5-chloro-2,6-diethyl-phenyl)-1-(4-chloro-benzyl)-1-(4-methoxy-naphthaline-1-yl)-urea] yielded an IC50 [1] of 60 to 200 nM.
`CCc1c(N)cc(Cl)c(CC)c1NC(=O)N(c1ccc(OC)cc1)[C@@H](C)c1ccc(Cl)cc1` [compound 92, (S)-3-(3-amino-5-chloro-2,6-diethyl-phenyl)-1-[1-(4-chloro-phenyl)-ethyl]-1-(4-methoxy-phenyl)-urea] gave an IC50 [1] of 60 to 200 nM.
Work on `CCc1c(N)cc(Cl)c(CC)c1NC(=O)N(c1ccc(Cl)cc1)[C@@H](C)c1ccc(Cl)cc1` [compound 86, (S)-3-(3-amino-5-chloro-2,6-diethyl-phenyl)-1-(4-chlor-phenyl)-1-[1-(4-chloro-phenyl)-ethyl]-urea] yielded an IC50 [1] of 200 to 5000 nM.
`CCc1ccc(N)c(CC)c1NC(=O)N(CC1CCCCC1)c1ccc(C(C)C)cc1` [compound 61, 3-(3-amino-2,6-diethyl-phenyl)-1-cyclohexylmethyl-1-(4-isopropyl-phenyl)-urea] showed an IC50 [1] of 200 to 5000 nM.
`CCc1c(N)cc(Cl)c(CC)c1NC(=O)N(Cc1ccc(Cl)cc1)c1ccc(OC(F)F)cc1` [compound 117, 3-(3-amino-5-chloro-2,6-diethyl-phenyl)-1-(4-chloro-benzyl)-1-(4-difluoromethoxy-phenyl)-urea] was tested, and the IC50 [1] was 200 to 5000 nM.
Work on `CCc1c(N)cc(Cl)c(CC)c1NC(=O)N(Cc1ccccc1)c1ccc(N(C)C)cc1` [compound 128, 3-(3-amino-5-chloro-2,6-diethyl-phenyl)-1-benzyl-1-(4-dimethylamino-phenyl)-urea] yielded an IC50 [1] of 200 to 5000 nM.
